Results published in patent US12648939B2, “Compounds and methods for treating spasticity” (Lexicon Pharmaceuticals, Inc., priority 2022, dated 2026).

Legend:
[1] = tested on: rat model of spasticity induced by complete spinal cord transection; assay: Rate-dependent depression (RDD) of the H-reflex in SCI rats; type: in vivo
Protocol: (§1) The efficacy of Compound 1 was measured in a rat model of spasticity induced by complete spinal cord transection. To induce muscle spasticity, a model of complete spinal cord transection cord at the eighth thoracic (T8) vertebral level was used. Five weeks after the Spinal Cord Injury (SCI), the rats were orally (P.O.) treated with Compound 1 (3, 10, or 30 mg/kg), Baclofen (4.5 mg/kg). Tizanidine (3 mg/kg) or vehicles alone (0.9% NaCl, Compound 1 vehicle), and the degree of spasticity response was measured using the rate-dependent depression (RDD) of the Hoffmann's reflex (H-reflex) and spasms induction.
(§2) Materials and Methods. […] One hundred and fifty-one SCI rats were maintained up to the end of the 5th post-injury week. One hundred and forty rats were submitted to P.O. administration of the test compounds and EMG analysis.
(§3) The rat was firmly restrained to immobilize the head. In an upright position, the gavage needle was passed along the side of the mouth. Following the roof of the mouth, the needle was advanced into the esophagus and toward the stomach. After the needle is passed to the correct length, the compound was slowly injected. The rats were randomly assigned to one of the test groups:
(§4) Electroneuromyographical recordings were performed in the right hind limbs before and 1, 2, 3, 4, 5 and 6 hours after P.O. administration.
(§5) Electromyographical (EMG) signals were amplified (100×) and bandpass filtered (300 Hz to 5 kHz; A-M Systems Amplifier. Everett, Washington; model 1700) before sampling at 13.5 kHz (Digidata 1440A, Molecular Devices). The tibial nerve was stimulated by using square pulses with increasing stimulus intensities (0.2 mA increments starting from 0.2 mA, 0.2 Hz, 0.2 ms; A-M systems stimulator, Model 2100) to obtain recruitment curves.
RDD of the H-reflex: To induce sedation, intraperitoneal injection of ketamine (100 mg/kg; Imalgen®) was used to suppress voluntary movements and increase muscle tone. Rats thorax and hindlimbs were secured on a heating pad with adhesive tape. The following series of measurements were repeated throughout the experiment: • 1. Hmax and Mmax determination: the tibial nerve was stimulated for 0.2 ms at 0.2 Hz with increasing current intensities (1-6 mA in 0.1 mA increments) until Mmax was stabilized. • 2. RDD measurement: the intensity necessary to obtain a maximal H-reflex was used for trains of 13 stimulations at 0.2, 1, 2 and 5 Hz with 2 min intervals between each train of stimulations. A whole series of measurements lasted about 15 minutes. • 3. Determination of the level of RDD: at the different frequencies, responses to the first three stimulations necessary for the depression to occur were discarded, and all the responses were expressed as percentages relative to the mean response at 0.2 Hz in the same series of measurements.
(§6) Data analysis: H-reflex RDDs and areas under the curves (AUC) were determined as a measurement of spasticity and analyzed at each time point and for each frequency with Mann-Whitney test or with Kruskal Wallis one-way analysis of variance (ANOVA) test, followed by Dunn's multiple comparisons test. P<0.05 was considered significant. Significant differences were marked with asterisks (*) according to their respective P-values: values were expressed as the mean value±standard error of the mean (SEM) in all graphs. All statistical analyses were performed using GraphPad Prism 7 (San Diego, California, USA).
Modulation of the RDD of the H-reflex. The Hoffmann reflex was used to assess primary (type 1a) afferents-mediated motoneuronal excitability in rats suffering from spasticity. Electromyograms typically show two responses: an initial M wave (FIG. 6B) resulting from the direct activation of motor axons (FIG. 6A-1), and a delayed H wave (FIG. 6B) resulting from the monosynaptic activation of motoneurons by the afferents (FIG. 6A-2). […]

[2] = tested on: rat model of spasticity induced by complete spinal cord transection; assay: Muscle spasms evoked by tibial nerve stimulation in chronic SCI rats; type: in vivo
Protocol: as §1, §2, §3, §4, §5
Muscles spasms: In awake chronic SCI rats, muscle spasms were evoked with stimulation of the tibial nerve while performing electromyographic (EMG) recordings from the flexor digitorum brevis (FDB) muscle. Spastic spinal rats were handled nine days before the experiment and progressively habituated to be individually constrained in a plexiglass tube and to immobilization of their paralyzed hindlimbs with tape. • 1. Hmax and Mmax determination: the tibial nerve was stimulated for 0.2 ms at 0.2 Hz with increasing current intensities (1-6 mA in 0.2 mA increments) until Mmax was stabilized. • 2. A supramaximal single-pulse stimulation to elicit muscle spasms was fixed throughout the experiment (2 or 3 times the threshold intensity for M-wave) and evoked 5 times, with 60 s interstimulus intervals. EMG were rectified and averaged over 2000 ms interval post-stimulus to quantify spasms (Clamplit 8.0, Axon Instruments).
as §6
Modulation of Muscle Spasms. When the tibial nerve was stimulated in acutely (1 week after injury) injured rats, little reflexes were evoked in the FDB muscle (FIG. 8A), regardless of the stimulation intensity. In contrast, stimulation of the tibial nerve in chronic (5 weeks after injury) SCI rats produced more (P<0.0001; Mann-Whitney test; FIG. 8C) long-lasting muscle contractions (FIG. 8B). This effect is a reliable correlate of the development of spasticity. In spastic rats, spasms were induced through the FDB muscle after electrical stimulation of the tibial nerve. […]

[3] = tested on: myelin oligodendrocyte glycoprotein (MOG)-induced murine model of experimental autoimmune encephalomyelitis (EAE); assay: Body weight in MOG-induced EAE model; type: in vivo, C57BL/6J mice; conditions: 1 mg/kg IP QD; Day 16; vehicle 82.06±2.35%
Protocol: (§7) The effect of Compound 1 on spasticity was evaluated in a myelin oligodendrocyte glycoprotein (MOG)-induced murine model of experimental autoimmune encephalomyelitis (EAE), a central nervous system (CNS) autoimmune demyelinating disease that mimics many of the clinical and pathologic features of multiple sclerosis. Gilgun-Sherki Y., et al., Neurosciences Research 47:201-207, 2003.
(§8) Study Design and Results. This study used sixty female young adult (10-11 weeks at study initiation) C57BL/6J mice sourced from Envigo RMS (Israel), Ltd. The animals were divided into five experimental groups:
(§9) Each group received a dose volume of 5 ml/kg, and the regimen was performed daily from day 0 to 22 of the study, QD. On study day 21, half of the animals in each group was treated and tested for electrophysiology and electromyography (EMG) two hours post dosing. On study day 22, the same was performed with the remaining half of the animals in each group.
(§10) FIG. 1 provides a representation of the study. Following baseline measurements, the MOG murine model begins with a sensitization period induced by the single subcutaneous (SC) injection of MOG emulsified in Complete Freund's adjuvant (CFA) on Study Day 0, followed by intraperitoneal (IP) supplemental immunostimulation with pertussis toxin (PT) carried out once at the day of EAE induction (study day 0) and once again 48 hours later (on study day 2). […] Mechanical allodynia was tested using the Von Frey test at Baseline and on Day 9 at various timepoints. For evaluation of spasticity, transcranial motor-evoked potentials (tcMEPs) were tested at Baseline and on Days 9 and 21-22 (half of the animals on each day). All animals were administered treatment once daily, starting on Day 0 until Day 22. Animals in Group 1 received oral (PO) treatment with the vehicle. Animals in Group 2 were treated with Fingolimod (FTY720; positive control) at a dose level of 3 mg/kg. PO. Animals in Groups 3 and 4 were treated with the test item Compound 1 at a dose level of 10 mg/kg or 3 mg/kg, PO, respectively. […]

[4] = tested on: myelin oligodendrocyte glycoprotein (MOG)-induced murine model of experimental autoimmune encephalomyelitis (EAE); assay: EAE clinical score and AUC; type: in vivo, C57BL/6J mice; conditions: 1 mg/kg IP QD
Protocol: as §7, §8
as §10, with “22.” for “22. Animals in Group 1 received oral (PO) treatment with the vehicle. Animals in Group 2 were treated with Fingolimod (FTY720; positive control) at a dose level of 3 mg/kg. PO. Animals in Groups 3 and 4 were treated with the test item Compound 1 at a dose level of 10 mg/kg or 3 mg/kg, PO, respectively.”

[5] = tested on: myelin oligodendrocyte glycoprotein (MOG)-induced murine model of experimental autoimmune encephalomyelitis (EAE); assay: Mechanical allodynia evaluation (Von Frey testing) in EAE model; type: in vivo, C57BL/6J mice; conditions: 1 mg/kg IP, Day 9
Protocol: as §7, §8
(§11) FIG. 1 provides a representation of the study. Following baseline measurements, the MOG murine model begins with a sensitization period induced by the single subcutaneous (SC) injection of MOG emulsified in Complete Freund's adjuvant (CFA) on Study Day 0, followed by intraperitoneal (IP) supplemental immunostimulation with pertussis toxin (PT) carried out once at the day of EAE induction (study day 0) and once again 48 hours later (on study day 2). […] Mechanical allodynia was tested using the Von Frey test at Baseline and on Day 9 at various timepoints. For evaluation of spasticity, transcranial motor-evoked potentials (tcMEPs) were tested at Baseline and on Days 9 and 21-22 (half of the animals on each day). All animals were administered treatment once daily, starting on Day 0 until Day 22. Animals in Group 1 received oral (PO) treatment with the vehicle. Animals in Group 2 were treated with Fingolimod (FTY720; positive control) at a dose level of 3 mg/kg. PO. Animals in Groups 3 and 4 were treated with the test item Compound 1 at a dose level of 10 mg/kg or 3 mg/kg, PO, respectively. Animals in Group 5 were treated with Tizanidine at a dose level of 1 mg/kg, IP.
Mechanical Allodynia Evaluation (Von Frey Testing): Animals were tested for mechanical allodynia using the Von Frey test at Baseline, and then on Day 9 at 0.5 hours ([…]), 1.5 hours, 3.5 hours (all groups) and 5.5 hours (Groups 1-4 only) post-dose.

[6] = tested on: myelin oligodendrocyte glycoprotein (MOG)-induced murine model of experimental autoimmune encephalomyelitis (EAE); assay: Electrophysiology (EMG, transcranial motor-evoked potentials) in EAE model; type: in vivo, C57BL/6J mice; conditions: 1 mg/kg IP QD, Day 10
Protocol: as §7, §8, §9, §11
Electrophysiology: The animals were subjected to electrophysiology testing at Baseline and Days 10 and 21 of the study. The EMG, latency, latency to main event, duration, peak-to-peak (P2P) amplitude, and number of subpeaks were recorded.

| SMILES | maximum effect, time (H-reflex RDD) ([1]; single P.O. 4.5 mg/kg) [h] | onset of action (H-reflex RDD) ([1]; single P.O. 4.5 mg/kg) [h] | mean relative amplitudes of the H-reflex (RDD) ([1]; single P.O. 4.5 mg/kg, SCI rats 5 weeks after injury) | maximum effect, time (muscle spasms) ([2]; single P.O. 4.5 mg/kg) [h] | muscle spasms (AUC) ([2]; single P.O. 4.5 mg/kg) | onset of action (muscle spasms) ([2]; single P.O. 4.5 mg/kg) [h] | mean BW presented as percentage from Baseline [3] [%] | clinical score compared to the vehicle [4] | withdrawal force threshold (Von Frey) ([5]; 3.5 hours post dosing, vehicle 0.78±0.06 g) [g] | withdrawal force threshold compared to vehicle ([5]; all timepoints (0.5, 1.5, and 3.5 hours) post-dose) | latency until reaching the main event ([6]; vehicle 10.05±2.59 ms) [ms] | peak-to-peak (P2P) amplitude ([6]; vehicle 7681.17±1505.12 μV) [μV] | maximum effect, time (H-reflex RDD) ([1]; single P.O. 3 mg/kg) [h] | onset of action (H-reflex RDD) ([1]; single P.O. 3 mg/kg) [h] | mean relative amplitudes of the H-reflex (RDD), effect on spasticity ([1]; single P.O. 3 mg/kg, SCI rats 5 weeks after injury) | maximum effect, time (muscle spasms) ([2]; single P.O. 3 mg/kg) [h] | muscle spasms (AUC) ([2]; single P.O. 3 mg/kg) | onset of action (muscle spasms) ([2]; single P.O. 3 mg/kg) [h] |
| --- | --- | --- | --- | --- | --- | --- | --- | --- | --- | --- | --- | --- | --- | --- | --- | --- | --- | --- |
| NCC(CC(=O)O)c1ccc(Cl)cc1 (stereo not drawn) [Baclofen, reference compound] | 5 | 1 | significantly reduced | 2 | reduced | 1 | – | – | – | – | – | – | – | – | – | – | – | – |
| Clc1ccc2nsnc2c1NC1=NCCN1 [Tizanidine, reference compound] | – | – | – | – | – | – | 91.31±1.59 | did not result in a significant reduction | 1.32 ± 0.15 | higher withdrawal force threshold | 5.64 ± 0.19 | 13488.71±1234.10 | 2 | 2 | significantly reduced | 3 | reduced | 2 |
